System: Magnaporthe grisea (Pyricularia oryzae—PYRIOR)
Test: microbe, parasite or virus in culture
Assay type: cell-based
Conditions: Pyricularia oryzae, read-out: PYRIOR in vitro Growth Inhibition

SMILES | inhibition at 25 ppm [%]
O=C(Nc1ccc(Oc2cccc(C(F)(F)F)c2)cc1)c1nccnc1O [Compound 535] | < 80
CCOc1ccnc(C(=O)NC2COC(=O)[C@H](Cc3ccccc3)[C@@H](OC(=O)C(C)C)[C@H](C)OC2=O)c1O (stereo partly drawn) [Compound 475] | > 80
O=C(OC1CCC(NC(=O)c2ncccc2O)CC1)c1ccccc1 (stereo not drawn) [Compound 211] | < 80
CC1(C)CC(NC(=O)c2cc(O)cnc2O)CC(C)(C)C1 [Compound 526] | < 80
COc1ccnc(C(=O)NC2CCN(Cc3ccc(C)cc3)CC2)c1O [Compound 306] | < 80
CC(C)C(=O)O[C@H]1[C@H](C)OC(=O)[C@@H](NC(=O)c2cc(O)cnc2O)COC(=O)[C@@H]1Cc1ccccc1 [Compound 527] | < 80

System: Rhizoctonia solani (RHIZSO)
Test: microbe, parasite or virus in culture
Assay type: cell-based
Conditions: Rhizoctonia solani, read-out: RHIZSO in vitro Growth Inhibition

SMILES | inhibition at 25 ppm [%]
O=C(Nc1ccc(Oc2cccc(C(F)(F)F)c2)cc1)c1nccnc1O [Compound 535] | > 80
CCOc1ccnc(C(=O)NC2COC(=O)[C@H](Cc3ccccc3)[C@@H](OC(=O)C(C)C)[C@H](C)OC2=O)c1O (stereo partly drawn) [Compound 475] | < 80
O=C(OC1CCC(NC(=O)c2ncccc2O)CC1)c1ccccc1 (stereo not drawn) [Compound 211] | < 80
CC1(C)CC(NC(=O)c2cc(O)cnc2O)CC(C)(C)C1 [Compound 526] | < 80
COc1ccnc(C(=O)NC2CCN(Cc3ccc(C)cc3)CC2)c1O [Compound 306] | < 80
CC(C)C(=O)O[C@H]1[C@H](C)OC(=O)[C@@H](NC(=O)c2cc(O)cnc2O)COC(=O)[C@@H]1Cc1ccccc1 [Compound 527] | < 80

System: Mycosphaerella graminicola (Septoria tritici—SEPTTR)
Test: In vitro fungal growth inhibition, Mycosphaerella graminicola (SEPTTR)
Assay type: cell-based
Conditions: Zymoseptoria tritici; 25 ppm in growth medium; read-out: SEPTTR in vitro Growth Inhibition

SMILES | inhibition at 25 ppm [%]
O=C(OC1CCC(NC(=O)c2ncccc2O)CC1)c1ccccc1 (stereo not drawn) [Compound 211] | < 80
COc1ccnc(C(=O)NC2CCN(Cc3ccc(C)cc3)CC2)c1O [Compound 306] | < 80

Same assay, conditions: Zymoseptoria tritici; 25 ppm in the growth medium; read-out: SEPTTR in vitro Growth Inhibition

SMILES | inhibition at 25 ppm [%]
O=C(Nc1ccc(Oc2cccc(C(F)(F)F)c2)cc1)c1nccnc1O [Compound 535] | < 80
CCOc1ccnc(C(=O)NC2COC(=O)[C@H](Cc3ccccc3)[C@@H](OC(=O)C(C)C)[C@H](C)OC2=O)c1O (stereo partly drawn) [Compound 475] | > 80
CC1(C)CC(NC(=O)c2cc(O)cnc2O)CC(C)(C)C1 [Compound 526] | < 80
CC(C)C(=O)O[C@H]1[C@H](C)OC(=O)[C@@H](NC(=O)c2cc(O)cnc2O)COC(=O)[C@@H]1Cc1ccccc1 [Compound 527] | < 80

System: Stagonospora nodorum (Leptosphaeria nodorum—LEPTNO)
Test: In vitro fungal growth inhibition, Stagonospora nodorum (LEPTNO)
Assay type: cell-based
Conditions: Leptosphaeria; 25 ppm in growth medium; read-out: LEPTNO in vitro Growth Inhibition

SMILES | inhibition at 25 ppm [%]
O=C(OC1CCC(NC(=O)c2ncccc2O)CC1)c1ccccc1 (stereo not drawn) [Compound 211] | < 80
COc1ccnc(C(=O)NC2CCN(Cc3ccc(C)cc3)CC2)c1O [Compound 306] | < 80

Same assay, conditions: Leptosphaeria; 25 ppm in the growth medium; read-out: LEPTNO in vitro Growth Inhibition

SMILES | inhibition at 25 ppm [%]
O=C(Nc1ccc(Oc2cccc(C(F)(F)F)c2)cc1)c1nccnc1O [Compound 535] | < 80
CCOc1ccnc(C(=O)NC2COC(=O)[C@H](Cc3ccccc3)[C@@H](OC(=O)C(C)C)[C@H](C)OC2=O)c1O (stereo partly drawn) [Compound 475] | > 80
CC1(C)CC(NC(=O)c2cc(O)cnc2O)CC(C)(C)C1 [Compound 526] | < 80
CC(C)C(=O)O[C@H]1[C@H](C)OC(=O)[C@@H](NC(=O)c2cc(O)cnc2O)COC(=O)[C@@H]1Cc1ccccc1 [Compound 527] | < 80

System: Ustilago maydis (USTIMA)
Test: microbe, parasite or virus in culture
Assay type: cell-based
Conditions: Mycosarcoma maydis, read-out: USTIMA in vitro Growth Inhibition

SMILES | inhibition at 25 ppm [%]
O=C(Nc1ccc(Oc2cccc(C(F)(F)F)c2)cc1)c1nccnc1O [Compound 535] | < 80
CCOc1ccnc(C(=O)NC2COC(=O)[C@H](Cc3ccccc3)[C@@H](OC(=O)C(C)C)[C@H](C)OC2=O)c1O (stereo partly drawn) [Compound 475] | < 80
O=C(OC1CCC(NC(=O)c2ncccc2O)CC1)c1ccccc1 (stereo not drawn) [Compound 211] | < 80
CC1(C)CC(NC(=O)c2cc(O)cnc2O)CC(C)(C)C1 [Compound 526] | < 80
COc1ccnc(C(=O)NC2CCN(Cc3ccc(C)cc3)CC2)c1O [Compound 306] | < 80
CC(C)C(=O)O[C@H]1[C@H](C)OC(=O)[C@@H](NC(=O)c2cc(O)cnc2O)COC(=O)[C@@H]1Cc1ccccc1 [Compound 527] | < 80

System: Phytophthora infestans (PHYTIN)
Test: microbe, parasite or virus in culture
Assay type: cell-based
Conditions: Phytophthora infestans, read-out: PHYTIN in vitro Growth Inhibition

SMILES | inhibition at 25 ppm [%]
O=C(Nc1ccc(Oc2cccc(C(F)(F)F)c2)cc1)c1nccnc1O [Compound 535] | < 80
CCOc1ccnc(C(=O)NC2COC(=O)[C@H](Cc3ccccc3)[C@@H](OC(=O)C(C)C)[C@H](C)OC2=O)c1O (stereo partly drawn) [Compound 475] | < 80
O=C(OC1CCC(NC(=O)c2ncccc2O)CC1)c1ccccc1 (stereo not drawn) [Compound 211] | < 80
CC1(C)CC(NC(=O)c2cc(O)cnc2O)CC(C)(C)C1 [Compound 526] | < 80
COc1ccnc(C(=O)NC2CCN(Cc3ccc(C)cc3)CC2)c1O [Compound 306] | < 80
CC(C)C(=O)O[C@H]1[C@H](C)OC(=O)[C@@H](NC(=O)c2cc(O)cnc2O)COC(=O)[C@@H]1Cc1ccccc1 [Compound 527] | < 80

System: Phytophthora infestans—PHYTIN
Test: whole plant or invertebrate
Assay type: in vivo
Conditions: Phytophthora, in Solanum lycopersicum, 24 h, read-out: PHYTIN in vivo 1 Day Protectant

SMILES | pest or weed control at 100 ppm [%]
O=C(Nc1ccc(Oc2cccc(C(F)(F)F)c2)cc1)c1nccnc1O [Compound 535] | < 25
CCOc1ccnc(C(=O)NC2COC(=O)[C@H](Cc3ccccc3)[C@@H](OC(=O)C(C)C)[C@H](C)OC2=O)c1O (stereo partly drawn) [Compound 475] | < 25
O=C(OC1CCC(NC(=O)c2ncccc2O)CC1)c1ccccc1 (stereo not drawn) [Compound 211] | < 25
CC1(C)CC(NC(=O)c2cc(O)cnc2O)CC(C)(C)C1 [Compound 526] | < 25
COc1ccnc(C(=O)NC2CCN(Cc3ccc(C)cc3)CC2)c1O [Compound 306] | < 25
CC(C)C(=O)O[C@H]1[C@H](C)OC(=O)[C@@H](NC(=O)c2cc(O)cnc2O)COC(=O)[C@@H]1Cc1ccccc1 [Compound 527] | < 25

System: Puccinia recondita—PUCCRT
Test: Brown Rust of Wheat, in vivo whole plant, 24 Hour Protectant
Conditions: Puccinia; 100 ppm spray, 24 hour protectant, wheat; control of fungal infection vs untreated plants; read-out: PUCCRT in vivo 1 Day Protectant

SMILES | pest or weed control at 100 ppm [%]
O=C(OC1CCC(NC(=O)c2ncccc2O)CC1)c1ccccc1 (stereo not drawn) [Compound 211] | < 25
COc1ccnc(C(=O)NC2CCN(Cc3ccc(C)cc3)CC2)c1O [Compound 306] | < 25

Same assay, conditions: Puccinia; wheat plants sprayed at 100 ppm, inoculated after 24 hours; control of fungal infection vs untreated plants; read-out: PUCCRT in vivo 1 Day Protectant

SMILES | pest or weed control at 100 ppm [%]
O=C(Nc1ccc(Oc2cccc(C(F)(F)F)c2)cc1)c1nccnc1O [Compound 535] | 25 to 74
CCOc1ccnc(C(=O)NC2COC(=O)[C@H](Cc3ccccc3)[C@@H](OC(=O)C(C)C)[C@H](C)OC2=O)c1O (stereo partly drawn) [Compound 475] | 25 to 74
CC1(C)CC(NC(=O)c2cc(O)cnc2O)CC(C)(C)C1 [Compound 526] | < 25
CC(C)C(=O)O[C@H]1[C@H](C)OC(=O)[C@@H](NC(=O)c2cc(O)cnc2O)COC(=O)[C@@H]1Cc1ccccc1 [Compound 527] | 25 to 74

System: Erysiphe graminis—ERYSGT
Test: Powdery Mildew of Wheat, in vivo whole plant, 24 Hour Protectant
Conditions: Erysiphe; 100 ppm spray, 24 hour protectant, wheat; control of fungal infection vs untreated plants; read-out: ERYSGT in vivo 1 Day Protectant

SMILES | pest or weed control at 100 ppm [%]
O=C(OC1CCC(NC(=O)c2ncccc2O)CC1)c1ccccc1 (stereo not drawn) [Compound 211] | < 25
COc1ccnc(C(=O)NC2CCN(Cc3ccc(C)cc3)CC2)c1O [Compound 306] | < 25

Same assay, conditions: Erysiphe; wheat plants sprayed at 100 ppm, inoculated after 24 hours; control of fungal infection vs untreated plants; read-out: ERYSGT in vivo 1 Day Protectant

SMILES | pest or weed control at 100 ppm [%]
O=C(Nc1ccc(Oc2cccc(C(F)(F)F)c2)cc1)c1nccnc1O [Compound 535] | < 25
CCOc1ccnc(C(=O)NC2COC(=O)[C@H](Cc3ccccc3)[C@@H](OC(=O)C(C)C)[C@H](C)OC2=O)c1O (stereo partly drawn) [Compound 475] | < 25
CC1(C)CC(NC(=O)c2cc(O)cnc2O)CC(C)(C)C1 [Compound 526] | < 25
CC(C)C(=O)O[C@H]1[C@H](C)OC(=O)[C@@H](NC(=O)c2cc(O)cnc2O)COC(=O)[C@@H]1Cc1ccccc1 [Compound 527] | < 25

System: Septoria tritici—SEPTTR
Test: Leaf Blotch of Wheat, in vivo whole plant, 24 Hour Protectant
Conditions: Zymoseptoria tritici, 24 h, 100 ppm spray, 24 hour protectant, wheat; control of fungal infection vs untreated plants; read-out: SEPTTR in vivo 1 Day Protectant

SMILES | pest or weed control at 100 ppm [%]
O=C(OC1CCC(NC(=O)c2ncccc2O)CC1)c1ccccc1 (stereo not drawn) [Compound 211] | 25 to 74
COc1ccnc(C(=O)NC2CCN(Cc3ccc(C)cc3)CC2)c1O [Compound 306] | 25 to 74

Same assay, conditions: Zymoseptoria tritici, 24 h, wheat plants sprayed at 100 ppm, inoculated after 24 hours; control of fungal infection vs untreated plants; read-out: SEPTTR in vivo 1 Day Protectant

SMILES | pest or weed control at 100 ppm [%]
O=C(Nc1ccc(Oc2cccc(C(F)(F)F)c2)cc1)c1nccnc1O [Compound 535] | 25 to 74
CCOc1ccnc(C(=O)NC2COC(=O)[C@H](Cc3ccccc3)[C@@H](OC(=O)C(C)C)[C@H](C)OC2=O)c1O (stereo partly drawn) [Compound 475] | 25 to 74
CC1(C)CC(NC(=O)c2cc(O)cnc2O)CC(C)(C)C1 [Compound 526] | 25 to 74
CC(C)C(=O)O[C@H]1[C@H](C)OC(=O)[C@@H](NC(=O)c2cc(O)cnc2O)COC(=O)[C@@H]1Cc1ccccc1 [Compound 527] | 25 to 74

System: Leptosphaeria nodorum—LEPTNO
Test: Glume Blotch of Wheat, in vivo whole plant, 24 Hour Protectant
Conditions: Leptosphaeria; 100 ppm spray, 24 hour protectant, wheat; control of fungal infection vs untreated plants; read-out: LEPTNO in vivo 1 Day Protectant

SMILES | pest or weed control at 100 ppm [%]
O=C(OC1CCC(NC(=O)c2ncccc2O)CC1)c1ccccc1 (stereo not drawn) [Compound 211] | 25 to 74
COc1ccnc(C(=O)NC2CCN(Cc3ccc(C)cc3)CC2)c1O [Compound 306] | < 25

Same assay, conditions: Leptosphaeria; wheat plants sprayed at 100 ppm, inoculated after 24 hours; control of fungal infection vs untreated plants; read-out: LEPTNO in vivo 1 Day Protectant

SMILES | pest or weed control at 100 ppm [%]
O=C(Nc1ccc(Oc2cccc(C(F)(F)F)c2)cc1)c1nccnc1O [Compound 535] | 25 to 74
CC1(C)CC(NC(=O)c2cc(O)cnc2O)CC(C)(C)C1 [Compound 526] | 25 to 74
CC(C)C(=O)O[C@H]1[C@H](C)OC(=O)[C@@H](NC(=O)c2cc(O)cnc2O)COC(=O)[C@@H]1Cc1ccccc1 [Compound 527] | < 25

Same assay, conditions: wheat plants sprayed at 100 ppm, inoculated after 24 hours; control of fungal infection vs untreated plants

SMILES | LEPTNO in vivo 1 Day Protectant
CCOc1ccnc(C(=O)NC2COC(=O)[C@H](Cc3ccccc3)[C@@H](OC(=O)C(C)C)[C@H](C)OC2=O)c1O (stereo partly drawn) [Compound 475] | + +

System: not given
Test: not given
Conditions: not given

SMILES | melting point
O=C(Nc1ccc(Oc2cccc(C(F)(F)F)c2)cc1)c1nccnc1O [Compound 535] | 239 to 243 °C (dec.)
CCOc1ccnc(C(=O)NC2COC(=O)[C@H](Cc3ccccc3)[C@@H](OC(=O)C(C)C)[C@H](C)OC2=O)c1O (stereo partly drawn) [Compound 475] | 168 to 172 °C
O=C(OC1CCC(NC(=O)c2ncccc2O)CC1)c1ccccc1 (stereo not drawn) [Compound 211] | 154 to 157 °C
CC1(C)CC(NC(=O)c2cc(O)cnc2O)CC(C)(C)C1 [Compound 526] | 320 to 327 °C
COc1ccnc(C(=O)NC2CCN(Cc3ccc(C)cc3)CC2)c1O [Compound 306] | 150 to 152 °C
CC(C)C(=O)O[C@H]1[C@H](C)OC(=O)[C@@H](NC(=O)c2cc(O)cnc2O)COC(=O)[C@@H]1Cc1ccccc1 [Compound 527] | 120 to 130 °C
